# Assay results: PMC4583781, “Heteropentanuclear Oxalato-Bridged nd–4f (n=4, 5) Metal Complexes with NO Ligand: Synthesis, Crystal Structures, Aqueous Stability and Antiproliferative Activity” (Chemistry (Weinheim an Der Bergstrasse, Germany), 2015)
# How the values were obtained:
# [1] = tested on: DLD-1 colon cancer model; design: method as in PMID 16343446, PMID 17445775; details: cited from earlier work
# [2] = tested on: HeLa cells (human cervical carcinoma); assay: MTT assay, antiproliferative activity in HeLa cells; assay type: cell-based; details: 48 h treatment, 3000 cells per well, read-out: IC50 HeLa (3000 c per w)
# Procedure: (§1) Human cervical carcinoma (HeLa), human alveolar basal adenocarcinoma (A549), and normal human fetal lung fibroblast cell line (MRC-5) were maintained as monolayer culture in the Roswell Park Memorial Institute (RPMI) 1640 nutrient medium (Sigma Chemicals Co, USA). RPMI 1640 nutrient medium was prepared in sterile ionized water, supplemented with penicillin (192 IU mL^−1), streptomycin (200 μg mL^−1), 4-(2-hydroxyethyl)piperazine-1-ethanesulfonic acid (HEPES) (25 mM), L-glutamine (3 mM) and 10 % of heat-inactivated fetal calf serum (FCS; pH 7.2). The cells were grown at 37 °C in 5 % CO2 and humidified air atmosphere, by twice weekly subculture.
# (§2) Antiproliferative activity of the ruthenium and osmium complexes was determined using 3-(4,5-dimethylthiazol-yl)-2,5-diphenyltetrazolium bromide (MTT, Sigma–Aldrich) assay.[49] Cells were seeded into 96-well cell culture plates (Thermo Scientific Nunc), at a cell density of 3000 cells per well (HeLa), 7000 cells per well (A549), and 5000 cells per well (MRC-5), in 100 μL of culture medium. After 24 h of growth, cells were exposed to the serial dilutions of the tested complexes. Complexes were dissolved in 1 % DMSO: complex 1 at a concentration of 4 mM, complexes 2–5 at a concentration of 1 mM, complexes 6–9 at a concentration of 0.6 mM, as stocks immediately prior use, and afterwards diluted with nutrient medium to desired final concentrations (in range up to 200 μM). Each concentration was tested in triplicate. After incubation periods of 48 h, 20 μL of MTT solutions (5 mg mL^−1 in phosphate buffer solution, pH 7.2) were added to each well. Samples were incubated for 4 h at 37 °C, with 5 % CO2 in a humidified atmosphere. Formazan crystals were dissolved in 100 μL of 10 % sodium dodecyl sulfate (SDS). Absorbances were recorded after 24 h, on an ELISA reader (ThermoLabsystems Multiskan EX 200–240 V), at the wavelength of 570 nm. The IC50 values, defined as the concentrations of the compound causing 50 % cell growth inhibition, were estimated from the dose-response curves.
# (§3) The antiproliferative activity of the ruthenium and osmium lanthanide complexes 1–9 was evaluated for 48 h of continuous drug action, using colorimetric MTT assay. The study was performed in two human neoplastic cell lines (HeLa, A549), and human fetal lung fibroblast cell line (MRC-5), which was used as noncancerous model for in vitro toxicity evaluation. The results are shown in Table 5 in terms of IC50 values for 48 h incubation period. IC50 values are calculated as mean values obtained from two to three independent experiments and are presented with their standard deviations.
# [3] = tested on: MRC-5 cells (normal human fetal lung fibroblast); assay: MTT assay, cytotoxicity in noncancerous MRC-5 cells; assay type: cell-based; details: 48 h treatment, 5000 cells per well, read-out: IC50 MRC-5 (5000 c per w)
# Procedure: as §1, §2, §3
# [4] = tested on: A549 cells (human alveolar basal adenocarcinoma); assay: MTT assay, antiproliferative activity in A549 cells; assay type: cell-based; details: 48 h treatment, 7000 cells per well, read-out: IC50 A549 (7000 c per w)
# Procedure: as §1, §2, §3
# [5] = Stability in aqueous solution by UV/Vis spectroscopy; assay type: physicochemical; details: UV/Vis spectroscopy over 96 h
# Procedure: Elemental analyses were performed by the microanalytical service of the Faculty of Chemistry of the University of Vienna on a Perkin–Elmer 2400 CHN Elemental Analyzer. UV/Vis spectra were recorded at 25 °C using a Perkin–Elmer Lambda 650 spectrometer equipped with an optical cell of 1 cm path-length in the wavelength range of 200 to 800 nm in combination with a Perkin–Elmer PTP-6 Peltier System. Electrospray ionization (ESI) mass spectrometry measurements were conducted on a Bruker HCT ion trap (Bruker Daltonics GmbH) by using methanol as a solvent. MIR spectra were recorded on a Perkin–Elmer 370 FTIR 2000 instrument using an ATR (attenuated total reflection) unit in the range of 4000–400 cm^−1. Phosphorescence emission spectra were recorded with a Horiba FluoroMax-4 spectrofluorimeter and the data were processed using the FluorEssence v3.5 software package.
# The stability of the heteropentanuclear complexes 5 and 9 in aqueous solution has been investigated by UV/Vis spectroscopy over 96 h.
# [6] = Stability of pentanuclear assembly in aqueous solution, IR comparison of residue; assay type: physicochemical; details: aqueous solution evaporated to dryness after standing 24 h in air
# Procedure: To exclude immediate dissociation of the pentanuclear assembly with release of a metal–oxalate fragment an aqueous solution of 5 was evaporated to dryness after standing for 24 h in air and the IR spectra of the residue and freshly prepared compound 5 were compared.
# [7] = tested on: cellular proteins of A549 cells; assay: Ru/Os binding to cellular proteins by ICP-MS; assay type: cell-based, human; details: 24 h versus 6 h, 0.5×IC50, ICP-MS
# [8] = tested on: cellular DNA of A549 cells; assay: Ru/Os binding to cellular DNA by ICP-MS; assay type: cell-based, human; details: 6 h treatment, 0.5×IC50, ICP-MS
# [9] = tested on: A549 cells; assay: Total intracellular Ru/Os accumulation by ICP-MS; assay type: cell-based, human; details: 6 and 24 h, 0.5×IC50 of complexes 4 and 8, ICP-MS, Ru (4) relative to Os (8)
Molecule,Efficacy against DLD-1 colon cancer model in vivo [1],IC50 [2],IC50 [3],IC50 [4],Stability in aqueous solution (change of optical spectra) [5],IR spectra of residue versus freshly prepared compound [6],Change of metal-protein binding with treatment prolongation [7],Metal (Ru/Os) bound to cellular DNA [8],Total intracellular accumulation of ruthenium versus osmium [9]
N#C[S-].N#C[S-].N#C[S-].[La+3].c1cnc2c(c1)ccc1cccnc12.c1cnc2c(c1)ccc1cccnc12.c1cnc2c(c1)ccc1cccnc12 [La(phen)3(NCS)3],highly effective,,,,,,,,
(nBu4N)2[RuCl3(ox)(NO)] [complex 1],,55.9 ± 5.6 µM,18.1 ± 6.5 µM,55 ± 1.6 µM,,,,,
(nBu4N)5[Dy(EtOH){RuCl3(μ-ox)(NO)}4] [complex 5],,20 ± 2.1 µM,13.2 ± 0.4 µM,47 ± 6.7 µM,no change in the optical spectra observed,no differences in the spectra observed,,,
(nBu4N)5[Gd(EtOH){RuCl3(μ-ox)(NO)}4] [complex 3],,29.1 ± 0.8 µM,11.1 ± 0.1 µM,26.5 ± 4 µM,,,,,
(nBu4N)5[Tb(EtOH){RuCl3(μ-ox)(NO)4}] [complex 4],,20 ± 2.4 µM,11.9 ± 0.4 µM,22.4 ± 3.1 µM,,,increased to a great extent,63.4(±1.8) pg metal μg^−1 DNA,five- to eightfold greater
(nBu4N)5[Y{OsCl3(μ-ox)(NO)}4] [complex 6],,152 ± 24 µM,115 ± 10.7 µM,> 200 µM,,,,,
(nBu4N)5[Y{RuCl3(μ-ox)(NO)}4] [complex 2],,17.9 ± 0.4 µM,12 ± 0.3 µM,56.3 ± 1.1 µM,,,,,
